According to PubChem BioAssay (NCI):
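48-hour exposure; five concentrations; linearly interpolated endpoints. The concentration for 50% growth inhibition is given as GI50. TGI marks complete inhibition of growth.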

Tests used:
Assay in all cases: NCI tumour cell line growth inhibition, 48 h; in the data active means GI50 below about 0.43 µM; inactive means the rest
[1] = system: NCI-H522 lung
[2] = system: LOX IMVI melanoma
[3] = system: ACHN renal
[4] = system: HOP-18 NSCLC
[5] = system: EKVX NSCLC
[6] = system: SR leukemia
[7] = system: XF 498 CNS
[8] = system: SK-OV-3 ovarian
[9] = system: UACC-62 melanoma
[10] = system: HOP-62 NSCLC
[11] = system: IGROV1 ovarian
[12] = system: NCI-H226 lung
[13] = system: SNB-75 CNS
[14] = system: SF-268 CNS
[15] = system: NCI-H23 lung
[16] = system: DLD-1 colon
[17] = system: SW-620 colon
[18] = system: DMS 114 small cell lung
[19] = system: OVCAR-5 ovarian
[20] = system: OVCAR-4 ovarian
[21] = system: LXFL 529 NSCLC
[22] = system: HCT-15 colon
[23] = system: TK-10 renal
[24] = system: DMS 273 small cell lung
[25] = system: MALME-3M melanoma
[26] = system: KM12 colon
[27] = system: OVCAR-8 ovarian
[28] = system: HCT-116 colon
[29] = system: SK-MEL-2 melanoma
[30] = system: SK-MEL-5 melanoma
[31] = system: 786-0 renal
[32] = system: HT29 colon
[33] = system: SF-539 CNS
[34] = system: K-562 leukemia
[35] = system: MOLT-4 leukemia
[36] = system: SN12C renal
[37] = system: HCC-2998 colon
[38] = system: HOP-92 NSCLC
[39] = system: RXF 393 renal
[40] = system: SF-295 CNS
[41] = system: A498 renal
[42] = system: SNB-78 CNS
[43] = system: A549 NSCLC
[44] = system: M19-MEL melanoma
[45] = system: OVCAR-3 ovarian
[46] = system: SK-MEL-28 melanoma
[47] = system: U251 CNS
[48] = system: CCRF-CEM leukemia
[49] = system: M14 melanoma
[50] = system: COLO 205 colon
[51] = system: SNB-19 CNS
[52] = system: KM20L2 colon
[53] = system: UO-31 renal
[54] = system: UACC-257 melanoma
[55] = system: NCI-H460 lung
[56] = system: HL-60(TB) leukemia
[57] = system: RPMI-8226 leukemia
[58] = system: CAKI-1 renal

CCC[CH2][Sn]([CH2]CCC)([O]C(=O)Cc1ccc(F)cc1)[O]C(=O)Cc1ccc(F)cc1
1.57 µM: TGI [42]
1.97 µM: TGI [28]
2.79 µM: TGI [11]
2 µM: TGI [50]
1.14 µM: TGI [15]
0.202 µM: TGI [21]
3.13 µM: TGI [20]
1.27 µM: TGI [2]
0.695 µM: TGI [39]
1.75 µM: TGI [14]
2.2 µM: TGI [38]
1.35 µM: TGI [25]
1.68 µM: TGI [46]
0.149 µM: TGI [1]
11.9 µM: TGI [48]
1.42 µM: TGI [16]
active: GI50 [1] 23.2 nM | GI50 [2] 279 nM | GI50 [6] 196 nM | GI50 [15] 176 nM | GI50 [16] 291 nM | GI50 [17] 206 nM | GI50 [18] 140 nM | GI50 [21] 47.6 nM | GI50 [25] 240 nM | GI50 [29] 355 nM | GI50 [34] 53.5 nM | GI50 [35] 124 nM | GI50 [39] 145 nM | GI50 [42] 284 nM | GI50 [44] 295 nM | GI50 [46] 396 nM | GI50 [47] 361 nM | GI50 [48] 36.2 nM
1480 nM: TGI [29]
4.69 µM: TGI [52]
0.796 µM: TGI [35]
2.13 µM: TGI [27]
5.85 µM: TGI [55]
2.28 µM: TGI [33]
4.08 µM: TGI [10]
1.13 µM: TGI [17]
1.54 µM: TGI [47]
0.393 µM: TGI [18]
1.86 µM: TGI [6] | TGI [41]
7.33 µM: TGI [8]
2.26 µM: TGI [49]
2.65 µM: TGI [51]
1.99 µM: TGI [54]
inactive: GI50 [3] 756 nM | GI50 [4] 1670 nM | GI50 [5] 777 nM | GI50 [7] 1080 nM | GI50 [8] 2930 nM | GI50 [9] 629 nM | GI50 [10] 2380 nM | GI50 [11] 1340 nM | GI50 [12] 443 nM | GI50 [13] 705 nM | GI50 [14] 450 nM | GI50 [19] 1790 nM | GI50 [20] 1680 nM | GI50 [22] 1040 nM | GI50 [23] 1030 nM | GI50 [24] 1040 nM | GI50 [26] 1710 nM | GI50 [27] 917 nM | GI50 [28] 657 nM | GI50 [30] 1080 nM | GI50 [31] 505 nM | GI50 [32] 1610 nM | GI50 [33] 1060 nM | GI50 [36] 856 nM | GI50 [37] 1230 nM | GI50 [38] 1020 nM | GI50 [40] 1130 nM | GI50 [41] 573 nM | GI50 [43] 7 µM | GI50 [45] 1270 nM | GI50 [49] 1060 nM | GI50 [50] 679 nM | GI50 [51] 1360 nM | GI50 [52] 1880 nM | GI50 [53] 1430 nM | GI50 [54] 603 nM | GI50 [55] 2270 nM
1.72 µM: TGI [31]
2.27 µM: TGI [30]
1.85 µM: TGI [12]
2.23 µM: TGI [22]
2.21 µM: TGI [23]
2.22 µM: TGI [24]
2.34 µM: TGI [40]
2.1 µM: TGI [13] | TGI [36]
1.89 µM: TGI [9]
2.52 µM: TGI [37]
3.05 µM: TGI [4]
0.58 µM: TGI [34]
2.09 µM: TGI [5]
19.9 µM: TGI [43]
1.65 µM: TGI [44]
2.75 µM: TGI [53]
4.03 µM: TGI [26]
3.18 µM: TGI [19]
2.29 µM: TGI [7]
2.01 µM: TGI [3]
3.68 µM: TGI [32]
2.54 µM: TGI [45]

COc1ccccc1N=Nc1c(-c2ccccc2)nn(C(=O)CC(=O)Nc2ccccc2Cl)c1-c1ccccc1
> 100 µM: TGI [1] | TGI [2] | TGI [3] | TGI [4] | TGI [5] | TGI [6] | TGI [7] | TGI [8] | TGI [9] | TGI [10] | TGI [11] | TGI [12] | TGI [13] | TGI [14] | TGI [15] | TGI [16] | TGI [17] | TGI [56] | TGI [18] | TGI [19] | TGI [20] | TGI [21] | TGI [22] | TGI [23] | TGI [24] | TGI [25] | TGI [26] | TGI [27] | TGI [28] | TGI [30] | TGI [31] | TGI [32] | TGI [33] | TGI [34] | TGI [35] | TGI [36] | TGI [37] | TGI [57] | TGI [39] | TGI [40] | TGI [41] | TGI [42] | TGI [43] | TGI [44] | TGI [45] | TGI [46] | TGI [47] | TGI [48] | TGI [49] | TGI [50] | TGI [51] | TGI [52] | TGI [53] | TGI [54] | TGI [55]

COc1ccc(-c2cc(=O)c3c(O)c(OC)c(O)c(OC)c3o2)cc1OC
> 100 µM: TGI [3] | TGI [4] | TGI [5] | TGI [6] | TGI [7] | TGI [8] | TGI [9] | TGI [10] | TGI [11] | TGI [12] | TGI [13] | TGI [14] | TGI [15] | TGI [16] | TGI [17] | TGI [56] | TGI [18] | TGI [20] | TGI [21] | TGI [22] | TGI [24] | TGI [25] | TGI [27] | TGI [28] | TGI [30] | TGI [31] | TGI [32] | TGI [33] | TGI [34] | TGI [35] | TGI [36] | TGI [37] | TGI [38] | TGI [57] | TGI [40] | TGI [41] | TGI [42] | TGI [43] | TGI [44] | TGI [46] | TGI [47] | TGI [48] | TGI [49] | TGI [50] | TGI [51] | TGI [52] | TGI [53] | TGI [54]
42.8 µM: TGI [1]
55.6 µM: TGI [39]

COc1ccc(C23c4ccc(OC)cc4CC2(c2ccc([N+](=O)[O-])cc2)Cc2cc(OC)ccc23)cc1 (stereo unspecified)
> 88.2 µM: TGI [44]
> 40.2 µM: TGI [30]
> 85.4 µM: TGI [19]
> 77.4 µM: TGI [53]
> 44.9 µM: TGI [52]
> 56.9 µM: TGI [14]
> 44.6 µM: TGI [38]
> 74.5 µM: TGI [33]
> 69.2 µM: TGI [35]
> 52.1 µM: TGI [50]
> 79.3 µM: TGI [15]
> 41.7 µM: TGI [9]
> 88 µM: TGI [10]
> 55.1 µM: TGI [46]
> 100000 nM: TGI [29]
> 81.6 µM: TGI [11]
> 68.4 µM: TGI [25]
> 73 µM: TGI [37]
> 37.9 µM: TGI [5]
> 100 µM: TGI [1] | TGI [58] | TGI [2] | TGI [3] | TGI [7] | TGI [8] | TGI [12] | TGI [13] | TGI [16] | TGI [17] | TGI [56] | TGI [18] | TGI [20] | TGI [21] | TGI [22] | TGI [23] | TGI [24] | TGI [26] | TGI [27] | TGI [28] | TGI [31] | TGI [32] | TGI [34] | TGI [36] | TGI [57] | TGI [40] | TGI [41] | TGI [42] | TGI [43] | TGI [45] | TGI [47] | TGI [48] | TGI [49] | TGI [51] | TGI [54] | TGI [55]
30.8 µM: TGI [4]
